# Where two headings read alike, the source gives them in different places.
# What was measured:
# Assay type in all cases: cell-based, human
# [1] = system: F-PemI and F-PemU fibroblasts; experiment: Alpha-smooth muscle actin alignment under a stressed matrix
# Excerpt: Finally to have an indication of the differentiation capacity of F-PemI and F-PemU fibroblasts, their expression and alignment of alpha-smooth muscle actin under a stressed matrix was investigated. F-PemI and F-PemU lack the ability to align their alpha-smooth muscle actin into stress fibers when compared to F-C fibroblasts. The diminished alignment of alpha-smooth muscle actin was similar in both F-PemI and F-PemU fibroblasts.
# To elucidate whether ALDH1A3 is contributing to this impaired alignment of alpha-smooth muscle actin in F-PemI and F-PemU fibroblasts, their alpha-smooth muscle actin alignment was imaged after being treated with DEAB and disulfiram.
# [2] = system: F-PemI and F-PemU fibroblasts; experiment: Collagen production of OcMMP fibroblasts after ALDH inhibition (collagen type I competitive ELISA)
# Description: To investigate whether there was differential matrix production in OcMMP, primary conjunctival fibroblasts explanted from conjunctival tissue samples from OcMMP patients with (F-PemI) and without (F-PemU) and control (F-C) patients were analysed for their matrix production and secretion (see FIG. 2A).
# To ascertain whether this enhanced collagen production was mediated by ALDH1A3, the collagen production profiles of F-PemI, F-PemU and F-C fibroblasts were assessed after ALDH inhibition with DEAB or disulfiram (see FIGS. 2B to 2E, where “+” and “−” indicate the presence or absence of DEAB/disulfiram respectively).
# A competitive ELISA (MD Bioproducts, Zurich, Germany) method was used to quantify the matrix production from a monolayer of F-C, F-PemU and F-PemI fibroblasts. The competitive assay is a colormetric based immunoassay utilises a biotinylated polyclonal antibody to Collagen Type I and purified human collagen type I as an antigen. […]
# Each experiment was carried out per manufacturer's instructions and performed with at least 4 experimental repeats and 3 biological repeats. […] Another method that has been noted for quantifying the level of collagen production in OcMMP fibroblasts is Q-PCR quantification of collagen type 1 mRNA expression post TGF-β induction (Razzaque et al., 2003, Investigative ophthalmology and visual science, 44: 3417-3423, 1616-1621 and 1998-2003). […]
# [3] = system: F-PemI and F-PemU fibroblasts; experiment: Proliferation of OcMMP fibroblasts after ALDH inhibition
# Description: The proliferative capacity of F-PemI, F-PemU and F-C fibroblasts was also assessed. […] The proliferative capacities of F-PemI and F-PemU were similar (see FIG. 4A).
# To find out whether ALDH1A3 also mediates this anti-proliferative phenotype we monitored the proliferation of F-PemI, F-PemU and F-C fibroblasts after addition of DEAB or disulfiram.
# [4] = system: F-PemI and F-PemU fibroblasts; experiment: Matrix contraction by OcMMP fibroblasts after ALDH inhibition
# Excerpt: (§1) Next the ability of F-PemI and F-PemU fibroblasts to organise matrix through matrix contraction was investigated. […] This diminished contractile profile was similar in F-PemI and F-PemU fibroblasts.
# (§2) To find out whether ALDH1A3 was also contributing to this phenotypic contractility we looked at the contractile profiles of F-PemI, F-PemU and F-C fibroblasts after DEAB or disulfiram ALDH inhibition.
# [5] = system: F-C fibroblasts; experiment: Matrix contraction by control fibroblasts after ALDH inhibition
# Excerpt: as §1, §2
smiles,measurement,setting,value
"CCN(CC)c1ccc(C=O)cc1 [DEAB, 4-(diethylamino)benzaldehyde]",alignment of alpha-smooth muscle actin in F-PemI and F-PemU fibroblasts,[1],markedly improved the alignment
same,F-PemI and F-PemU fibroblast collagen production,[2]; 10^−7M,brought down to control cell levels
same,F-PemI and F-PemU fibroblast collagen production,[2]; increasing concentrations,dose dependent and significant decrease
same,proliferation of F-PemI and F-PemU fibroblasts,[3],proliferating at a significantly enhanced rate
same,proliferation of F-PemI and F-PemU fibroblasts,[3]; lowest concentration of 10^−7M,proliferated at similar level to F-C fibroblasts
same,contractility of F-PemI and F-PemU fibroblasts,[4]; increasing concentrations,increased the contractility of F-PemI and F-PemU fibroblasts in a dose dependent manner
same,contraction of F-PemI and F-PemU fibroblasts,[4]; lowest concentration of 10^−7M,control cell levels of contraction
same,contractile profile of F-C fibroblasts,[5],did not have any significant effects

# — patent US9937133B2, “Treatment of fibrosis” (UCL BUSINESS PLC, priority 2014, dated 2018)
